Experimental data taken from PMC6594753, “Cystic fibrosis drug ivacaftor stimulates CFTR channels at picomolar concentrations” (eLife, 2019).

Target: T1, WT CFTR (Homo sapiens, UniProt P13569)
T1 construct: expressed in transfected cells; host or cells: Xenopus laevis oocytes injected with cRNA transcribed from pGEMHE-CFTR
Test: Single-channel recording in excised inside-out patches, kinetic analysis of microscopic patches
Type: biochemical
Protocol: Patch pipette solution contained (in mM): 136 NMDG-Cl, 2 MgCl2, 5 HEPES, pH = 7.4 with NMDG. Bath solution contained (in mM): 134 NMDG-Cl, 2 MgCl2, 5 HEPES, 0.5 EGTA, pH = 7.1 with NMDG. MgATP (2 mM) was added from a 400 mM aqueous stock solution (pH = 7.1 with NMDG). Before each experiment 300 nM catalytic subunit of PKA (Sigma-Aldrich Kft., Budapest, Hungary) was applied for ~1 min to phosphorylate CFTR channels. Vx-770 (Selleck Chemicals) was diluted into the bath solution either from a ‘1x saturated’ aqueous stock solution (see above, concentration ~62 nM), or from a commercially obtained 10 mM stock dissolved in DMSO (Selleck Chemicals). Following patch excision the patch pipette was moved into a flow chamber, and recordings were done under continuous superfusion of the cytosolic patch surface. Solution compositions were exchanged using computer-driven electronic valves (solution exchange time constant <50 ms). After each recording day perfusion tubings were extensively washed with distilled water. Although supersaturated solutions of Vx-770 were not employed here, any perfusion tubing that had ever been in contact with a given concentration of Vx-770 was subsequently used only for solutions that contained the same, or higher, concentrations of the drug. After every 5–6 experimental days the entire perfusion system was replaced. Currents were recorded at 25°C, at a membrane potential of −40 mV, digitized at 10 kHz, Gaussian-filtered at 2 kHz, and recorded to disk (Axopatch 200B, Digidata 1322A, Pclamp9 (Molecular Devices, RRID: SCR_011323)). For display purposes, currents are shown filtered at 10 Hz and sampled at 20 Hz, and expanded single-channel traces (Figure 2b, Figure 4d) are shown filtered at 50 Hz and sampled at 250 Hz.
Segments of current recording originating from 1 to 7 active channels were digitally filtered at 50 Hz, and idealized by half-amplitude threshold crossing. Steady-state open probabilities in 2 mM ATP, before or during application of Vx-770 or after its removal (Figure 2c), were calculated from the events lists as the time-average of the fraction of open channels. A closed-open-blocked (C-O-B) kinetic scheme, which separates brief (~10 ms) flickery closures (to state B) from long (~1 s) interburst closures (to state C), was fitted by maximum likelihood to the set of dwell-time histograms for all conductance levels, to obtain microscopic transition rates rCO, rOC, rOB, and rBO, while accounting for a fixed dead time of 6 ms ([Csanády, 2000]). The software is freely available upon request. Mean burst (τb) and interburst (τib) durations were calculated as τb=(1/rOC)(1 + rOB/rBO) and τib=1/rCO, and channel opening and closing rates (Figure 2c) defined as 1/τib and 1/τb, respectively. […]

[1] = single channel, 0.05x saturated (~3 nM) Vx-770

T1 sequence (P13569 whole entry): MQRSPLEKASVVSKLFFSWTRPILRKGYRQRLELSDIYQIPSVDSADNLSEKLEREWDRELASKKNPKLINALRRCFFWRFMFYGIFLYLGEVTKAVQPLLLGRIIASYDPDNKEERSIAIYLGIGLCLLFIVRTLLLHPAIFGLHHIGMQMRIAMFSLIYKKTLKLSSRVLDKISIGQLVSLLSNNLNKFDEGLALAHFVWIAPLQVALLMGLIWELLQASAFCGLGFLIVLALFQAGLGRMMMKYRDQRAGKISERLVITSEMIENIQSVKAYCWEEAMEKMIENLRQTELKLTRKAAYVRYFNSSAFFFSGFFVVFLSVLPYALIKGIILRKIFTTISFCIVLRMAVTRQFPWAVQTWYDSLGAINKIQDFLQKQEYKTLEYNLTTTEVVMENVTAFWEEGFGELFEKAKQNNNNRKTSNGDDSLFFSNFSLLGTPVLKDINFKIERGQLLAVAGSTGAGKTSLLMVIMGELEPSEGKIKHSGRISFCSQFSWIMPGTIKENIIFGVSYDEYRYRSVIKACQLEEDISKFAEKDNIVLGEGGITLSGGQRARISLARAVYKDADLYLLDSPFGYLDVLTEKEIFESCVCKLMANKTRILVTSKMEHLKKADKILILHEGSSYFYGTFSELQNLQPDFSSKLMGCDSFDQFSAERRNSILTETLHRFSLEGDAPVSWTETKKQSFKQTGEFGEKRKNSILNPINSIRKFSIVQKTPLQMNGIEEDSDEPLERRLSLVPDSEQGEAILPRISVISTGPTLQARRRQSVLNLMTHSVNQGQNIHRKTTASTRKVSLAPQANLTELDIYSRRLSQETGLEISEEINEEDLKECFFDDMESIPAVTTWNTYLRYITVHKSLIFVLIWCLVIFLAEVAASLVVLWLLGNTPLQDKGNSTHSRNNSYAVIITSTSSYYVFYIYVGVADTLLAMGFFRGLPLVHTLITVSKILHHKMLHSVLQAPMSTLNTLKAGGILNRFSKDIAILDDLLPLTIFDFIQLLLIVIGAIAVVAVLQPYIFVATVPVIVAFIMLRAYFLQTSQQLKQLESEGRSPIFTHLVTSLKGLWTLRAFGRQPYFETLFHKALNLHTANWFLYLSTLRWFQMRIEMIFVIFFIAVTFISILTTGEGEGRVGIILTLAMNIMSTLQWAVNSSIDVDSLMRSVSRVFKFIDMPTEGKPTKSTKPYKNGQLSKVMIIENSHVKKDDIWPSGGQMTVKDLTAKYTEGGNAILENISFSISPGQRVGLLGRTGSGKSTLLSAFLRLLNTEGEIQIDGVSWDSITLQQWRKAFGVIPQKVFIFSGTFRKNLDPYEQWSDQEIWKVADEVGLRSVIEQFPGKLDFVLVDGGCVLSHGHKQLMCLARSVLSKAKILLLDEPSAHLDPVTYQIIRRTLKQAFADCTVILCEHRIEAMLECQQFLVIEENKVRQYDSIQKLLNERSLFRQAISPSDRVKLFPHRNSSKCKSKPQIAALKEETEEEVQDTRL

- stimulation of open probability (0.05x saturated (~3 nM) Vx-770 (20-fold dilution of 1x stock), 2 mM ATP): ~ 4 fold
- reversibility of effects on channel gating (following washout of 0.05x saturated Vx-770): fully reversible
- time of switch back to low-activity gating after drug removal [1]: ~ 5 min
- time of switch from low- to high-activity gating after initiation of drug exposure [1]: ~ 3 min
Compound: CC(C)(C)c1cc(C(C)(C)C)c(NC(=O)c2c[nH]c3ccccc3c2=O)cc1O [Vx-770, ivacaftor]
